This note sets out measurements from patent publication US9346809B2 (LEO PHARMA A/S, priority 2009, dated 2016).

Common to all, as to format: biochemical
The target of assay [1] is T1, JAK3 (catalytic domain, His-tag) (Homo sapiens, UniProt P52333).
T1 construct: All four purified enzymes contain only the catalytic domain; His (N); purchased Carna Biosciences, Inc; host or cells: baculovirus expression system
The experiment in a line: JAK kinase assay (HTRF, phosphorylation of TK substrate-biotin), JAK3. The note with it: ATP at Km (2 μM); read-out: JAK3 kinase inhibitory activity (EC50 indicator). The procedure, abridged:
(§1)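 Compound was mixed with TK substrate-biotin (1 μM final), then kinase plus ATP at its Km was added and left 20-30 min at room temperature. Detection mix with EDTA, Streptavidin-XL665 and STK Ab Cryptate stopped the reaction; after overnight dark incubation, HTRF was read and EC50 derived.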
Background: In TR-FRET formats the signal depends on donor and acceptor labels being close together.

In assay [2] the target is T2, JAK1 (aa 850-1154, catalytic domain, GST-tag) (Homo sapiens, UniProt P23458).
T2 construct: JAK1 (aa 850-1154) and TYK2 (aa 871-1187) are expressed with an N-terminally fused GST-tag; GST (N); purchased Carna Biosciences, Inc; host or cells: baculovirus expression system
T2 sequence (P23458 850-1154): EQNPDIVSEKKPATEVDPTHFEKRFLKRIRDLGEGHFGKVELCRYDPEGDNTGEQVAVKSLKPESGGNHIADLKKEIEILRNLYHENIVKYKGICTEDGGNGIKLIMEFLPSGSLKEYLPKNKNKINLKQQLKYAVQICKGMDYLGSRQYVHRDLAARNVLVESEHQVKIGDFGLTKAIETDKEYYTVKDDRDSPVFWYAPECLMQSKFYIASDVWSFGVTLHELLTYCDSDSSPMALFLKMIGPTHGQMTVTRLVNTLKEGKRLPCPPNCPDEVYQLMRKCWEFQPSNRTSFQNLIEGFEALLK
The experiment in a line: JAK kinase assay (HTRF, phosphorylation of TK substrate-biotin), JAK1. Conditions: ATP at Km (7 μM); read-out: JAK1 kinase inhibitory activity (EC50 indicator). The procedure, abridged:
as §1

Assay [3] has as its target T3, JAK2 (catalytic domain, His-tag) (Homo sapiens, UniProt O60674).
T3 construct: All four purified enzymes contain only the catalytic domain; His (N); purchased Carna Biosciences, Inc; host or cells: baculovirus expression system
The experiment in a line: JAK kinase assay (HTRF, phosphorylation of TK substrate-biotin), JAK2. The note with it: ATP at Km (4 μM); read-out: JAK2 kinase inhibitory activity (EC50 indicator). The procedure, abridged:
as §1

Assay [4] has as its target T4, TYK2 (aa 871-1187, catalytic domain, GST-tag) (Homo sapiens, UniProt P29597).
T4 construct: JAK1 (aa 850-1154) and TYK2 (aa 871-1187) are expressed with an N-terminally fused GST-tag; GST (N); purchased Carna Biosciences, Inc; host or cells: baculovirus expression system
T4 sequence (P29597 871-1187): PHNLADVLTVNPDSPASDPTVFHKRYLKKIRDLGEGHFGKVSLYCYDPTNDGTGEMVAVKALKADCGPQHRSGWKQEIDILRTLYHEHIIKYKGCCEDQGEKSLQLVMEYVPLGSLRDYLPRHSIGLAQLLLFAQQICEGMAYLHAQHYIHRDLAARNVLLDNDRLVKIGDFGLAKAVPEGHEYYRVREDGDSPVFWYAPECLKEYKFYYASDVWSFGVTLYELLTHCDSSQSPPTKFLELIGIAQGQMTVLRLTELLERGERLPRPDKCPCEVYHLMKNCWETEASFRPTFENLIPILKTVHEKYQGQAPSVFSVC
Nature of the assay: JAK kinase assay (HTRF, phosphorylation of TK substrate-biotin), TYK2. The note with it: ATP at Km (13 μM); read-out: TYK2 kinase inhibitory activity (EC50 indicator). The gist of the method:
as §1

SMILES strings stand for the structures.

T1 sequence (P52333 822-1111 limits assumed): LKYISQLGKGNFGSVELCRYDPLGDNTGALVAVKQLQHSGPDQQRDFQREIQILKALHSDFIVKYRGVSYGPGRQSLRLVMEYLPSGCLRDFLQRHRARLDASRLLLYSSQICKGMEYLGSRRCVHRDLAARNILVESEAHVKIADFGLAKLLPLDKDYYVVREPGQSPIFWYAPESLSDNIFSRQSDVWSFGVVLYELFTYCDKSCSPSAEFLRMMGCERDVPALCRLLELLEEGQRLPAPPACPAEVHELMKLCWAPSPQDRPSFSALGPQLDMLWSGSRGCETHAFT
T3 sequence (O60674 849-1124 limits assumed): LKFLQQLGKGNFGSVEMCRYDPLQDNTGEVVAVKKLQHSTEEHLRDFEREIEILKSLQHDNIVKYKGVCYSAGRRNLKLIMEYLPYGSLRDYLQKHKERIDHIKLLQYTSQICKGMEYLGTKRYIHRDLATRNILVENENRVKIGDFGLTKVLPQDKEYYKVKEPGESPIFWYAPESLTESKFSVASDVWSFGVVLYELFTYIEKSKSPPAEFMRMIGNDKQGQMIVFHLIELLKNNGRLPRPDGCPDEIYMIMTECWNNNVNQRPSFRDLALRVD

The EC50 is the concentration at which the effect is half-maximal. For `N#CCC(=O)N1[C@@H]2CC[C@H]1CN(c1ncnc3[nH]ccc13)C2` [Example 53, 3-Oxo-3-[3-(7H-pyrrolo[2,3-d]pyrimidin-4-yl)-3,8-diazabicyclo[3.2.1]oct-8-yl]propionitrile], the EC50 in assay [1] is 100 to 500 nM; in assay [2], 100 to 500 nM; in assay [3] it was 100 to 500 nM; in assay [4], more than 500 nM.
Consider `N#CCC(=O)N1CCN(c2ncnc3[nH]ccc23)CC12CC2` [Example 54, 3-Oxo-3-[7-(7H-pyrrolo[2,3-d]pyrimidin-4-yl)-4,7-diazaspiro[2.5]oct-4-yl]propionitrile], for which the EC50 in assay [1] is less than 100 nM; in assay [2] it was less than 100 nM; in assay [3], less than 100 nM; in assay [4], more than 500 nM.
Turning to `O=C(c1cc2ccccc2[nH]1)N1CCN(c2ncnc3[nH]ccc23)CC12CC2` [Example 55, (1H-Indol-2-yl)-[7-(7H-pyrrolo[2,3-d]pyrimidin-4-yl)-4,7-diazaspiro[2.5]oct-4-yl]methanone], the EC50 in assay [1] is less than 100 nM; in assay [2] it was less than 100 nM; in assay [3], less than 100 nM; in assay [4], 100 to 500 nM.
Consider `O=C(c1ccc(=O)[nH]c1)N1CCN(c2ncnc3[nH]ccc23)CC12CC2` [Example 56, 5-[7-(7H-Pyrrolo[2,3-d]pyrimidin-4-yl)-4,7-diazaspiro[2.5]octane-4-carbonyl]-1H-pyridin-2-one], for which the EC50 is 100 to 500 nM in assay [1], less than 100 nM in assay [2], less than 100 nM in assay [3] and more than 500 nM in assay [4].
With `O=C(c1cccnc1)N1[C@@H]2CC[C@H]1CN(c1ncnc3[nH]ccc13)C2` [Example 57, Pyridin-3-yl-[3-(7H-pyrrolo[2,3-d]pyrimidin-4-yl)-3,8-diazabicyclo[3.2.1]oct-8-yl]methanone], the EC50 is more than 500 nM in assay [1], 100 to 500 nM in assay [2], 100 to 500 nM in assay [3] and more than 500 nM in assay [4].
On to `O=C(OCc1ccccc1)N1[C@@H]2CC[C@H]1CN(c1ncnc3[nH]ccc13)C2` [Example 58, 3-(7H-Pyrrolo[2,3-d]pyrimidin-4-yl)-3,8-diazabicyclo[3.2.1]octane-8-carboxylic acid benzyl ester], for which the EC50 is 100 to 500 nM in assay [1], less than 100 nM in assay [2], less than 100 nM in assay [3] and more than 500 nM in assay [4].
Take `C#CCOC(=O)N1[C@@H]2CC[C@H]1CN(c1ncnc3[nH]ccc13)C2` [Example 59, 3-(7H-Pyrrolo[2,3-d]pyrimidin-4-yl)-3,8-diazabicyclo[3.2.1]octane-8-carboxylic acid prop-2-ynyl ester]: the EC50 in assay [1] is 100 to 500 nM; in assay [2], 100 to 500 nM; in assay [3] it was 100 to 500 nM; in assay [4], more than 500 nM.
Regarding `N#Cc1csc(C(=O)N2CCN(c3ncnc4[nH]ccc34)CC23CC3)c1` [Example 60, 5-[7-(7H-Pyrrolo[2,3-d]pyrimidin-4-yl)-4,7-diaza-spiro[2.5]octane-4-carbonyl]-thiophene-3-carbonitrile], the EC50 in assay [1], in assay [2], in assay [3] and in assay [4] was less than 100 nM each time.
On to `O=C(c1cc2c(s1)CCC2)N1CCN(c2ncnc3[nH]ccc23)CC12CC2` [Example 61, (5,6-Dihydro-4H-cyclopenta[b]thiophen-2-yl)[7-(7H-pyrrolo[2,3-d]pyrimidin-4-yl)-4,7-diaza-spiro[2.5]oct-4-yl]-methanone], for which the EC50 in assay [1], in assay [2], in assay [3] and in assay [4] was less than 100 nM throughout.
As to `Cc1csc(C(=O)N2CCN(c3ncnc4[nH]ccc34)CC23CC3)c1` [Example 62, (4-Methyl-thiophen-2-yl)-[7-(7H-pyrrolo[2,3-d]pyrimidin-4-yl)-4,7-diaza-spiro[2.5]oct-4-yl]-methanone], the EC50 in assay [1], in assay [2], in assay [3] and in assay [4] was less than 100 nM throughout.
Consider `NS(=O)(=O)c1ccc(C(=O)C(=O)N2CCN(c3ncnc4[nH]ccc34)CC23CC3)cc1` [Example 63, 4-{2-Oxo-2-[7-(7H-pyrrolo[2,3-d]pyrimidin-4-yl)-4,7-diaza-spiro[2.5]oct-4-yl]-acetyl}-benzenesulfonamide], for which the EC50 in assay [1], in assay [2], in assay [3] and in assay [4] was less than 100 nM in each case.
For the molecule `N#Cc1ccc(C(F)(F)C(=O)N2CCN(c3ncnc4[nH]ccc34)CC23CC3)cc1` [Example 64, 4-{1,1-Difluoro-2-oxo-2-[7-(7H-pyrrolo[2,3-d]pyrimidin-4-yl)-4,7-diaza-spiro[2.5]oct-4-yl]-ethyl}-benzonitrile], the EC50 in assay [1] is 100 to 500 nM; in assay [2], less than 100 nM; in assay [3] it was less than 100 nM; in assay [4], more than 500 nM.
For `N#Cc1ccc(C(F)(F)C(=O)N2[C@@H]3CC[C@H]2CN(c2ncnc4[nH]ccc24)C3)cc1` [Example 65, 4-{1,1-Difluoro-2-oxo-2-[3-(7H-pyrrolo[2,3-d]pyrimidin-4-yl)-3,8-diaza-bicyclo[3.2.1]oct-8-yl]-ethyl}-benzonitrile], the EC50 in assay [1] is 100 to 500 nM; in assay [2], 100 to 500 nM; in assay [3] it was less than 100 nM; in assay [4], more than 500 nM.
Turning to `N#Cc1cc(CC(=O)N2CCN(c3ncnc4[nH]ccc34)CC23CC3)ccc1F` [Example 66, 2-Fluoro-5-{2-oxo-2-[7-(7H-pyrrolo[2,3-d]pyrimidin-4-yl)-4,7-diaza-spiro[2.5]oct-4-yl]-ethyl}-benzonitrile], the concentration for a half-maximal effect (EC50) in assay [1] was 100 to 500 nM; in assay [2] it was less than 100 nM; in assay [3] it was less than 100 nM; in assay [4], more than 500 nM.
For the molecule `N#CCOc1cccc(C(=O)N2CCN(c3ncnc4[nH]ccc34)CC23CC3)c1` [Example 67, {3-[7-(7H-Pyrrolo[2,3-d]pyrimidin-4-yl)-4,7-diaza-spiro[2.5]octane-4-carbonyl]-phenoxy}-acetonitrile], the EC50 was 100 to 500 nM in assay [1], less than 100 nM in assay [2], less than 100 nM in assay [3] and 100 to 500 nM in assay [4].
For `N#CCOc1ccc(C(=O)N2CCN(c3ncnc4[nH]ccc34)CC23CC3)cc1` [Example 68, {4-[7-(7H-Pyrrolo[2,3-d]pyrimidin-4-yl)-4,7-diaza-spiro[2.5]octane-4-carbonyl]-phenoxy}-acetonitrile], the EC50 in assay [1] was 100 to 500 nM; in assay [2], less than 100 nM; in assay [3] it was less than 100 nM; in assay [4], 100 to 500 nM.
`N#CCOc1ccc(CC(=O)N2CCN(c3ncnc4[nH]ccc34)CC23CC3)cc1` [Example 69, (4-{2-Oxo-2-[7-(7H-pyrrolo[2,3-d]pyrimidin-4-yl)-4,7-diaza-spiro[2.5]oct-4-yl]-ethyl}-phenoxy)-acetonitrile]: the EC50 is less than 100 nM in assay [1], less than 100 nM in assay [2], less than 100 nM in assay [3] and more than 500 nM in assay [4].
Consider `N#CCOc1cccc(CC(=O)N2CCN(c3ncnc4[nH]ccc34)CC23CC3)c1` [Example 70, (3-{2-Oxo-2-[7-(7H-pyrrolo[2,3-d]pyrimidin-4-yl)-4,7-diaza-spiro[2.5]oct-4-yl]-ethyl}-phenoxy)-acetonitrile], for which the EC50 in assay [1] is 100 to 500 nM; in assay [2], 100 to 500 nM; in assay [3] it was 100 to 500 nM; in assay [4], more than 500 nM.
For the molecule `N#Cc1ccc(C(=O)N2[C@@H]3CC[C@H]2CN(c2ncnc4[nH]ccc24)C3)s1` [Example 71, 5-[3-(7H-Pyrrolo[2,3-d]pyrimidin-4-yl)-3,8-diaza-bicyclo[3.2.1]octane-8-carbonyl]-thiophene-2-carbonitrile], the EC50 is less than 100 nM in assay [1], less than 100 nM in assay [2], less than 100 nM in assay [3] and 100 to 500 nM in assay [4].
Consider `Cc1nccnc1C(=O)N1[C@@H]2CC[C@H]1CN(c1ncnc3[nH]ccc13)C2` [Example 72, (3-Methyl-pyrazin-2-yl)-[3-(7H-pyrrolo[2,3-d]pyrimidin-4-yl)-3,8-diaza-bicyclo[3.2.1]oct-8-yl]-methanone], for which the EC50 in assay [1] is 100 to 500 nM; in assay [2] it was 100 to 500 nM; in assay [3], less than 100 nM; in assay [4] it was more than 500 nM.
As to `Cc1cncc(C(=O)N2[C@@H]3CC[C@H]2CN(c2ncnc4[nH]ccc24)C3)n1` [Example 73, (6-Methyl-pyrazin-2-yl)-[3-(7H-pyrrolo[2,3-d]pyrimidin-4-yl)-3,8-diaza-bicyclo[3.2.1]oct-8-yl]-methanone], the EC50 is 100 to 500 nM in assay [1], less than 100 nM in assay [2], 100 to 500 nM in assay [3] and more than 500 nM in assay [4].
